Here are results for two compounds from patent publication US6696493B2, “Treating chronic uremic patients undergoing periodic dialysis” (Sigma-Tau Industrie Farmaceutiche Riunite S.p.A., priority 2000, dated 2004).

For series [1], the system named is perfused heart. Description: low-pressure or low-flow ischaemia model, perfused heart (Langendorff). An excerpt: In this example, the low-pressure or low-flow ischaemia model was used, which is a model recognised as valid for cardiac ischaemia (Bolukoglu, H. et al. Am. J. Physiol. 1996: 270; H817-26).
The treatment schedule is illustrated in FIG. 1., in which the letters A-F denote the heart effluent sampling times for the measurement of metabolites. The hearts are removed from the animals and mounted on a Langerdorff appliance. The perfusion medium replacing the blood was a Krebs-Heinsleit standard bicarbonate buffer containing glucose 12 mM as energy source for cardiac metabolism.
After 30 minute perfusion at a pressure of 100 cm of water, ischaemia was induced by reducing the perfusion pressure of the heart to 25 cm of water, thus reducing coronary flow from approximately 2 ml/min to approximately 0.3 ml/min. Reduction of the perfusion pressure gives rise to ischaemia, since the heart will pump the fluid in the low-perfusion area rather than via the coronary bloodstream, supplying the flow to the heart.
This control model was compared with hearts perfused with L-carnitine 10 mM or L-carnitine fumarate 10 mM.
Cardiac function was tested in three different ways.
In the first, the NRM ^31P signal was monitored in real time.
This signal provides the best indication of the energy status of the heart.
In the second, the haemodynamics of the heart was measured by means of a pressure transducer mounted to measure the perfusion pressure. The haemodynamic measurements include heart rate, relative dP/dt (measurement of the contraction force of the heart) and the cardiac contraction amplitude. Coronary flow was also measured as an indicator of the heart's ability to provide oxygen and energy for its own metabolism.
In the third type of test, the metabolites and the enzyme LDH released by the heart were analysed in the effluent. The release of LDH indicates damage to cardiac tissue. The release of metabolites by the heart was tested by means of mass spectrometry coupled with gas chromatography.
The procedures of example 1 were substantially repeated, with the addition of a treatment with carnitine alone as a further control.

For series [2] the following is noted: cited from earlier work.
Series [3] relates to patients. To be noted: oral supplementation, cited from earlier work.
Series [4] deals with maintenance hemodialysis patients. The settings on record: i.v. 20 mg/kg after each dialysis session; cited from earlier work.
In series [5] the test system is hemodialysis patients. The settings on record: i.v. 20 mg/kg for six months, then 10 mg/kg, after each dialysis session; cited from earlier work.
The mark [6] stands for this setting: 10 mM, post-ischemic, vs control hearts.

Entries after “also recorded” stand apart in the source; their conditions may differ.

Regarding `C[N+](C)(C)C[C@H](O)CC(=O)[O-].O=C(O)/C=C/C(=O)O` [carnitine fumarate, L-carnitine fumarate], the “release of LDH in heart effluent” value in series [1] (10 mM in perfusion medium, low-flow ischaemia, vs control hearts, fumarate) is recorded as “reduced release of LDH; also recorded: affords protection against ischemic damage”. The “reserves of high-energy phosphate (creatine phosphate, 31P NMR)” value in series [1] (10 mM, after 45 minutes of ischaemia, vs control hearts) is “greater in treated hearts”. Moreover, the “malate released by the heart (effluent)” value in series [1] (10 mM, low-flow ischaemia, GC-MS of effluent) is on record as “more malate”. Moreover, the “lactate released by the heart (effluent)” value in series [1] (10 mM, low-flow ischaemia, GC-MS of effluent, fumarate) is “less lactate; also recorded: lactate reduction”. In series [1] (setting [6]), the coronary flow entry is reported as “greater” and the “post-ischemic cardiac contraction amplitude” value was “greater”. In series [1] (Example 2, FIG. 3B, compared to lactate), the “succinate released by the heart (effluent)” value is “low amount of succinate as compared to lactate”.

As to `C[N+](C)(C)C[C@H](O)CC(=O)[O-]` [carnitine, L-carnitine], the “ATP peaks (alpha, beta, gamma phosphate, 31P NMR)” value in series [1] (Example 2, after 40 minutes of ischaemia, FIG. 2) is reported as “lacking”. Moreover, the “bioavailability through the oral route” value in series [2] is listed as “subject to saturation mechanism”. For the same compound, the “quality of life, early stage of treatment” value in series [3] (early stage of treatment) is reported as “effective in improving the quality of life”. Further, the “quality of life, long term treatment” value in series [3] (long term treatment (six months)) was “not sustained”. In series [4], the dialytic symptoms entry was “decrease”; the “effect on serum lipid profile” value was “does not seem to have a great lipid-lowering potential”; the “exercise capability, sense of well being” value is “improvement”. The “abnormal serum fatty acid profile” value in series [5] is reported as “partial correction”.
